Experiment [1] deals with Recombinant SARS-CoV-2 3CL Protease (Severe acute respiratory syndrome coronavirus 2 (2019-nCoV) (SARS-CoV-2), UniProt P0DTD1). Put plainly: biochemical. The experiment is classed as biochemical. As to conditions: 50% SARS-CoV-2 3CL protease inhibitory concentration; read-out: IC50.
The subject of experiment [2] is SARS-CoV-2. Put plainly: Cytopathic effect (CPE) suppression effect confirmation test using HEK293T/ACE2-TMPRSS2 cells. It is filed as cell-based. Conditions: Severe acute respiratory syndrome coronavirus 2, HEK-293T.
[3] abbreviates: 50% SARS-CoV-2 infected cell death inhibitory concentration, HEK293T/ACE2-TMPRSS2 cells, read-out: EC50.
Setting [4] is: 72 h, read-out: EC50 (50% SARS-CoV-2 infected cell death inhibitory concentration), HEK293T/ACE2-TMPRSS2 cells, CPE suppression, CellTiter-Glo 2.0 after 3 days culture.

Like-named read-outs stand apart in the source and are kept apart here.

What is called IC50 is the midpoint of a concentration-inhibition curve. As for `CC(C)N1CCN(c2c(-c3ccc(F)c(Cl)c3)c(=O)n(-c3cncc(Cl)c3)c(=O)n2CC#N)CC1=O` [Compound I-223], in experiment [1], the IC50 is under 10 nM. For the same compound, the EC50 in experiment [2] (setting [3]) was under 100 nM.
For `CCN1CCN(c2c(-c3ccc(F)c(Cl)c3)c(=O)n(-c3cncc(C)c3)c(=O)n2CC#N)CC1=O` [Compound I-224], the IC50 in experiment [1] is under 10 nM. In addition, the EC50 in experiment [2] (setting [3]) is under 100 nM.
As for `Cc1cncc(-n2c(=O)c(-c3ccc(F)c(Cl)c3)c(N3C[C@@H]4C[C@H]3CO4)n(CC#N)c2=O)c1` [Compound I-225], the IC50 in experiment [1] is under 10 nM. The EC50 in experiment [2] (setting [3]) was under 100 nM.
On to `Cc1cncc(-n2c(=O)c(-c3ccc(F)c(Cl)c3)c(N3C[C@H]4C[C@@H]3CO4)n(CC#N)c2=O)c1` [Compound I-226], for which the IC50 in experiment [1] is under 10 nM. Further, in experiment [2] (setting [3]), the EC50 was under 100 nM.
On the same counts, the results for `N#CCn1c(N2CC3(CCOC3)C2)c(C2=CCCCCC2)c(=O)n(-c2cncc(Cl)c2)c1=O` [Compound I-227] are under 10 nM and under 100 nM.
The like results for `Cc1cnnc(-n2c(=O)c(-c3ccc(F)c(Cl)c3)c(N3CC4(C3)CC(F)(F)C4)n(CC#N)c2=O)c1` [Compound I-228] were, in that order, under 10 nM and under 100 nM.
In the case of `N#CCn1c(N2CC3(C2)CC(F)(F)C3)c(-c2ccc(F)c(Cl)c2)c(=O)n(-c2cc(C(F)(F)F)cnn2)c1=O` [Compound I-229], the IC50 in experiment [1] was under 10 nM. For the same compound, the EC50 in experiment [2] (setting [3]) was under 100 nM.
For `N#CCn1c(N2CC3(C2)CC(F)(F)C3)c(-c2ccc(F)c(Cl)c2)c(=O)n(-c2cncc(F)c2)c1=O` [Compound I-231], the IC50 in experiment [1] was under 10 nM. Also, in experiment [2] (setting [3]), the EC50 is under 100 nM.
Take `N#CCn1c(N2CC(O)(c3ncccn3)C2)c(-c2ccc(F)c(Cl)c2)c(=O)n(-c2cncc(Cl)c2)c1=O` [Compound I-232]: in experiment [1], the IC50 was 0.86 nM. In addition, in experiment [2] (setting [4]), the EC50 came to 6.46 nM.
On to `N#CCn1c(N2CC(c3ncccn3)C2)c(-c2ccc(F)c(Cl)c2)c(=O)n(-c2cncc(Cl)c2)c1=O` [Compound I-233], for which, in experiment [1], the IC50 is under 10 nM. The EC50 in experiment [2] (setting [3]) is under 100 nM.
For `N#CCn1c(N2CC(O)(c3ncc(F)cn3)C2)c(-c2ccc(F)c(Cl)c2)c(=O)n(-c2cncc(Cl)c2)c1=O` [Compound I-234], the IC50 in experiment [1] was determined as 1.2 nM. In addition, the EC50 in experiment [2] (setting [4]) is 6.6 nM.
For `N#CCn1c(N2CC[C@H](C(=O)N3CC(F)(F)C3)C2)c(-c2ccc(F)c(Cl)c2)c(=O)n(-c2cncc(Cl)c2)c1=O` [Compound I-235], the IC50 in experiment [1] is under 10 nM. In experiment [2] (setting [3]), the EC50 is under 100 nM.
As to `N#CCn1c(N2CC[C@@H](C(=O)C3CC(F)(F)C3)C2)c(-c2ccc(F)c(Cl)c2)c(=O)n(-c2cncc(Cl)c2)c1=O` [Compound I-236], the IC50 in experiment [1] was under 10 nM. Also, the EC50 in experiment [2] (setting [3]) is under 100 nM.
On to `N#CCn1c(N2CC(O)(c3cnccn3)C2)c(-c2ccc(F)c(Cl)c2)c(=O)n(-c2cncc(Cl)c2)c1=O` [Compound I-237], for which, in experiment [1], the IC50 is under 10 nM. In experiment [2] (setting [3]), the EC50 is under 100 nM.
Consider `N#CCn1c(N2CCCO2)c(-c2ccc(F)c(Cl)c2)c(=O)n(-c2cncc(Cl)c2)c1=O` [Compound I-242], for which the IC50 in experiment [1] is 10 to 100 nM. Also, the EC50 in experiment [2] (setting [3]) is under 100 nM.
As for `N#CCn1c(N2CCOC2=O)c(-c2ccc(F)c(Cl)c2)c(=O)n(-c2cncc(Cl)c2)c1=O` [Compound I-243], the IC50 in experiment [1] was over 100 nM. In experiment [2] (setting [3]), the EC50 lay within 100 to 1000 nM.
With `CN1CCN(c2c(-c3ccc(F)c(Cl)c3)c(=O)n(-c3cncc(Cl)c3)c(=O)n2CC#N)C1=O` [Compound I-244], the IC50 in experiment [1] is 10 to 100 nM. Also, the EC50 in experiment [2] (setting [3]) was under 100 nM.
Turning to `N#CCn1c(OC2CC(F)(F)C2)c(-c2ccc(F)c(Cl)c2)c(=O)n(-c2cncc(Cl)c2)c1=O` [Compound I-245], the IC50 in experiment [1] is 10 to 100 nM. In experiment [2] (setting [3]), the EC50 is under 100 nM.
Take `N#CCn1c(Oc2cncc(Cl)c2)c(-c2ccc(F)c(Cl)c2)c(=O)n(-c2cncc(Cl)c2)c1=O` [Compound I-246]: the concentration for half-maximal inhibition (IC50) in experiment [1] is under 10 nM. In addition, the EC50 in experiment [2] (setting [3]) was in the range of 100 to 1000 nM.
As for `N#CCn1c(N2CC3(C2)CC(F)(F)C3)c(-c2ccc(F)c(Cl)c2)c(=O)n(-c2cncc(C#N)c2)c1=O` [Compound I-247], in experiment [1], the IC50 was under 10 nM. Also, the EC50 in experiment [2] (setting [3]) was under 100 nM.
With `Cc1cncc(-n2c(=O)c(-c3ccc(F)c(Cl)c3)c(C#CC3CC3)n(CC#N)c2=O)c1` [Compound I-248], the IC50 in experiment [1] was under 10 nM. Moreover, the EC50 in experiment [2] (setting [3]) lay in the range of 100 to 1000 nM.
Consider `N#CCn1c(N2CC(CO)C2)c(-c2ccc(F)c(Cl)c2)c(=O)n(-c2cncc(Cl)c2)c1=O` [Compound I-249], for which, in experiment [1], the IC50 is 0.54 nM. In addition, the EC50 in experiment [2] (setting [4]) was found to be 7.9 nM.
The like results for `N#CCn1c(N2CC(C(F)F)C2)c(-c2ccc(F)c(Cl)c2)c(=O)n(-c2cncc(Cl)c2)c1=O` [Compound I-250] were, in that order, 0.54 nM and 3.31 nM.
Consider `N#CCn1c(N2CCC2)c(-c2ccc(F)c(Cl)c2)c(=O)n(-c2cncc(Cl)c2)c1=O` [Compound I-251], for which the IC50 in experiment [1] was under 10 nM. Besides, in experiment [2] (setting [3]), the EC50 is under 100 nM.
On to `Cc1cnc(F)c(-n2c(=O)c(-c3ccc(F)c(Cl)c3)c(N3CC4(C3)CC(F)(F)C4)n(CC#N)c2=O)c1` [Compound I-255], for which the IC50 in experiment [1] was under 10 nM. The EC50 in experiment [2] (setting [3]) is under 100 nM.
In the case of `N#CCn1c(N2CC(O)(c3nccs3)C2)c(-c2ccc(F)c(Cl)c2)c(=O)n(-c2cncc(Cl)c2)c1=O` [Compound I-256], the IC50 in experiment [1] is under 10 nM. Also, in experiment [2] (setting [3]), the EC50 was under 100 nM.
In the case of `N#CCn1c(N2CC(OC(F)(F)F)C2)c(-c2ccc(F)c(Cl)c2)c(=O)n(-c2cncc(Cl)c2)c1=O` [Compound I-257], in experiment [1], the IC50 is 0.35 nM. In experiment [2] (setting [4]), the EC50 was determined as 2.98 nM.
With `N#CCn1c(N2CC3(C2)CC(F)(F)C3)c(-c2cncc(Cl)c2)c(=O)n(-c2cncc(Cl)c2)c1=O` [Compound I-258], the IC50 in experiment [1] was under 10 nM. Moreover, in experiment [2] (setting [3]), the EC50 was under 100 nM.
With `N#CCn1c(N2CC3(C2)CC(O)(c2ccccc2)C3)c(-c2ccc(F)c(Cl)c2)c(=O)n(-c2cncc(Cl)c2)c1=O` [Compound I-259], in experiment [1], the IC50 stood at 0.45 nM. Besides, in experiment [2] (setting [4]), the EC50 turned out to be 5.44 nM.
Regarding `COc1cncc(-n2c(=O)c(-c3ccc(F)c(Cl)c3)c(N3CC4(C3)CC(F)(F)C4)n(CC#N)c2=O)n1` [Compound I-260], the IC50 in experiment [1] was under 10 nM. Also, the EC50 in experiment [2] (setting [3]) is under 100 nM.
As for `N#CCn1c(N2CC(O)(c3ncccn3)C2)c(-c2ccc(F)c(Cl)c2)c(=O)n(-c2cncc(C(F)(F)F)c2)c1=O` [Compound I-261], the IC50 in experiment [1] was 18 nM. Besides, the EC50 in experiment [2] (setting [4]) is 34.5 nM.
As to `CC(=O)Nc1cccc(-c2c(N3CCC(F)(F)CC3)n(CC#N)c(=O)n(-c3cncc(Cl)c3)c2=O)c1` [Compound I-263], the IC50 in experiment [1] was over 100 nM. The EC50 in experiment [2] (setting [3]) fell in the range of 1000 to 5000 nM.
`N#CCn1c(N2CC3(CCOC3)C2)c(C2=CCCCC2)c(=O)n(-c2cncc(Cl)c2)c1=O` [Compound I-264]: in experiment [1], the IC50 was under 10 nM. The EC50 in experiment [2] (setting [3]) was under 100 nM.
For `N#CCn1c(-c2ccc(C3CC3)cc2)c(N2CCCCC2)c(=O)n(-c2cncc(Cl)c2)c1=O` [Compound I-265], in experiment [1], the IC50 lay in the range of 10 to 100 nM. Further, the EC50 in experiment [2] (setting [3]) is 100 to 1000 nM.
On the same counts, the results for `N#CCn1c(C2CCC(F)(F)CC2)c(-c2ccnc(C(F)(F)F)c2)c(=O)n(-c2cncc(Cl)c2)c1=O` [Compound I-266] are 10 to 100 nM and 100 to 1000 nM.
On the same counts, the results for `Cc1ccc(-c2c(-c3ccc(F)c(Cl)c3)c(=O)n(-c3cncc(C)c3)c(=O)n2CC#N)cc1` [Compound I-270] are under 10 nM and under 100 nM.
Consider `COc1ccc(-c2c(-c3ccc(F)c(Cl)c3)c(=O)n(-c3cncc(C)c3)c(=O)n2CC#N)cc1` [Compound I-271], for which, in experiment [1], the IC50 was under 10 nM. Further, in experiment [2] (setting [3]), the EC50 was under 100 nM.
As for `Cc1cncc(-n2c(=O)c(-c3ccc(F)c(Cl)c3)c(-c3ccc(F)cc3)n(CC#N)c2=O)c1` [Compound I-272], the IC50 in experiment [1] is under 10 nM. For the same compound, the EC50 in experiment [2] (setting [3]) was under 100 nM.
For `Cc1cncc(-n2c(=O)c(-c3ccc(F)c(Cl)c3)c(-c3ccc(C(N)=O)cc3)n(CC#N)c2=O)c1` [Compound I-273], the IC50 in experiment [1] is under 10 nM. Moreover, the EC50 in experiment [2] (setting [3]) was under 100 nM.
Consider `Cc1cncc(-n2c(=O)c(-c3ccc(F)c(Cl)c3)c(-c3ccc(N(C)C)cc3)n(CC#N)c2=O)c1` [Compound I-274], for which the IC50 in experiment [1] is under 10 nM. Further, the EC50 in experiment [2] (setting [3]) is under 100 nM.
On to `Cc1cncc(-n2c(=O)c(-c3ccc(F)c(Cl)c3)c(-c3ccc(S(N)(=O)=O)cc3)n(CC#N)c2=O)c1` [Compound I-275], for which, in experiment [1], the IC50 is under 10 nM. Further, in experiment [2] (setting [3]), the EC50 fell in the range of 100 to 1000 nM.
As for `Cc1cncc(-n2c(=O)c(-c3ccc(F)c(Cl)c3)c(NS(=O)(=O)c3ccccc3)n(CC#N)c2=O)c1` [Compound I-276], the IC50 in experiment [1] is under 10 nM. The EC50 in experiment [2] (setting [3]) is under 100 nM.
On to `Cc1cc(-n2c(=O)c(-c3ccc(F)c(Cl)c3)c(N3CC4(C3)CC(F)(F)C4)n(CC#N)c2=O)c[n+]([O-])c1` [Compound I-278], for which the IC50 in experiment [1] was under 10 nM. In experiment [2] (setting [3]), the EC50 lay in the range of 100 to 1000 nM.
For the compound `Cc1cncc(-n2c(=O)c(-c3ccc(F)c(Cl)c3)c(-c3cn[nH]c3)n(CC#N)c2=O)c1` [Compound I-279], the IC50 in experiment [1] was under 10 nM. Moreover, in experiment [2] (setting [3]), the EC50 is under 100 nM.
For `Cc1cncc(-n2c(=O)c(-c3ccc(F)c(Cl)c3)c(Oc3ccccc3)n(CC#N)c2=O)c1` [Compound I-280], in experiment [1], the IC50 is under 10 nM. Besides, in experiment [2] (setting [3]), the EC50 was under 100 nM.
Regarding `N#CCn1cc(-c2ccc(F)c(Cl)c2)c(=O)n(-c2cncc(Cl)c2)c1=O` [Compound I-281], in experiment [1], the IC50 fell in the range of 10 to 100 nM. The EC50 in experiment [2] (setting [3]) was under 100 nM.
Consider `CCCCc1c(N2CC3(CCOC3)C2)n(CC#N)c(=O)n(-c2cncc(Cl)c2)c1=O` [Compound I-284], for which the IC50 in experiment [1] fell in the range of 10 to 100 nM. In experiment [2] (setting [3]), the EC50 was under 100 nM.
